Patent publication US9708314B2, “Heterocyclic amide compound” (NISSAN CHEMICAL INDUSTRIES, LTD., priority 2013, dated 2017)

Tests used:
Assay type in all cases: in vivo
Triticum aestivum = assay: Test Example 4: effect on crop by application to foliage (diluvial soil, plastic box); settings: for e: effect on crop, Triticum aestivum: application to foliage, application herbicide amount 320 g/ha
Procedure, shortened: (§1)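 Greenhouse plants (25° C. to 30° C., 14 d, diluvial soil) receive a foliar spray of water-diluted emulsifiable formulation at defined g/ha. Grading after 3 weeks uses a six-step herbicidal-ratio scale, with 4 covering 70% to <90% and 1 covering 5% to <20%.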

[1] = test system: Beta vulgaris ssp. vulgaris; assay: as above; settings: for f: effect on crop, Beta vulgaris ssp. vulgaris: application to foliage, application herbicide amount 320 g/ha
Procedure, shortened: as §1

Zea mays = assay: as above; settings: for c: effect on crop, Zea mays: application to foliage, application herbicide amount 320 g/ha
Procedure, shortened: as §1

Brassica campestris L. = assay: as above; settings: for g: effect on crop, Brassica campestris L.: application to foliage, application herbicide amount 320 g/ha
Procedure, shortened: as §1

Glycine max = assay: as above; settings: for d: effect on crop, Glycine max: application to foliage, application herbicide amount 320 g/ha
Procedure, shortened: as §1

[2] = test system: directly sowed Oryza sativa; assay: as above; settings: for b: effect on crop, directly sowed Oryza sativa: application to foliage, application herbicide amount 320 g/ha
Procedure, shortened: as §1

Amaranthus retroflexus = assay: Test Example 4: herbicidal effect by application to foliage (diluvial soil, plastic box); settings: for N: herbicidal effect on Amaranthus retroflexus: application to foliage, application herbicide amount 320 g/ha
Procedure, shortened: as §1

Alopecurus myosuroides = assay: as above; settings: for J: herbicidal effect on Alopecurus myosuroides: application to foliage, application herbicide amount 320 g/ha
Procedure, shortened: as §1

Digitaria ciliaris = assay: as above; settings: for F: herbicidal effect on Digitaria ciliaris: application to foliage, application herbicide amount 320 g/ha
Procedure, shortened: as §1

[3] = test system: Echinochloa crus-galli var. crus-galli; assay: as above; settings: for H: herbicidal effect on Echinochloa crus-galli var. crus-galli: application to foliage, application herbicide amount 320 g/ha
Procedure, shortened: as §1

Avena fatua = assay: as above; settings: for I: herbicidal effect on Avena fatua: application to foliage, application herbicide amount 320 g/ha
Procedure, shortened: as §1

Stellaria media = assay: as above; settings: for P: herbicidal effect on Stellaria media: application to foliage, application herbicide amount 320 g/ha
Procedure, shortened: as §1

Veronica persica = assay: as above; settings: for R: herbicidal effect on Veronica persica: application to foliage, application herbicide amount 320 g/ha
Procedure, shortened: as §1

Chenopodium album = assay: as above; settings: for O: herbicidal effect on Chenopodium album: application to foliage, application herbicide amount 320 g/ha
Procedure, shortened: as §1

Galium spurium = assay: as above; settings: for Q: herbicidal effect on Galium spurium: application to foliage, application herbicide amount 320 g/ha
Procedure, shortened: as §1

Lolium multiflorum Lam. = assay: as above; settings: for K: herbicidal effect on Lolium multiflorum Lam.: application to foliage, application herbicide amount 320 g/ha
Procedure, shortened: as §1

Apera spica-venti. = assay: as above; settings: for L: herbicidal effect on Apera spica-venti.: application to foliage, application herbicide amount 320 g/ha
Procedure, shortened: as §1

Abutilon theophrasti = assay: as above; settings: for M: herbicidal effect on Abutilon theophrasti: application to foliage, application herbicide amount 320 g/ha
Procedure, shortened: as §1

Setaria viridis = assay: as above; settings: for G: herbicidal effect on Setaria viridis: application to foliage, application herbicide amount 320 g/ha
Procedure, shortened: as §1

[4] = test system: Echinochloa oryzacola Vasing.; assay: Test Example 1: herbicidal activity, application before weed generation in submerged conditions; settings: Application herbicide amount 320 g/ha; Seventeenth Table
Procedure, shortened: (§2)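 Water-diluted emulsion formulation is applied onto flood water (4 cm deep) covering alluvial soil on the day weed seeds are sown, after transplanting 2.5 leaf stage rice. Rates are expressed per hectare. Injury or control is graded 0–5 three weeks later.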

Scirpus juncoides = assay: as above; settings: Application herbicide amount 320 g/ha; Seventeenth Table
Procedure, shortened: as §2

Monochoria vaginalis = assay: as above; settings: Application herbicide amount 320 g/ha; Seventeenth Table
Procedure, shortened: as §2

[5] = test system: transplanted Oryza sativa; assay: Test Example 1: effect on crop, application before weed generation in submerged conditions; settings: Application herbicide amount 320 g/ha; Seventeenth Table
Procedure, shortened: as §2

[6] = Application herbicide amount 320 g/ha, foliage application

| Structure (SMILES) | A: Echinochloa oryzicola Vasing. (herbicidal effect grade) [4] | B: Scirpus juncoides (herbicidal effect grade) (Scirpus juncoides) | C: Monochoria vaginalis (herbicidal effect grade) (Monochoria vaginalis) | a: transplanted Oryza sativa (effect on crop grade) [5] | e: effect on crop, Triticum aestivum (Triticum aestivum) | f: effect on crop, Beta vulgaris ssp. vulgaris [1] | c: effect on crop, Zea mays (Zea mays) | g: effect on crop, Brassica campestris L. (Brassica campestris L.) | d: effect on crop, Glycine max (Glycine max) | b: effect on crop, directly sowed Oryza sativa [2] | N: herbicidal effect on Amaranthus retroflexus (Amaranthus retroflexus) | J: herbicidal effect on Alopecurus myosuroides (Alopecurus myosuroides) | F: herbicidal effect on Digitaria ciliaris (Digitaria ciliaris) | H: herbicidal effect on Echinochloa crus-galli var. crus-galli [3] | I: herbicidal effect on Avena fatua (Avena fatua) | P: herbicidal effect on Stellaria media (Stellaria media) | R: herbicidal effect on Veronica persica (Veronica persica) | O: herbicidal effect on Chenopodium album (Chenopodium album) | Q: herbicidal effect on Galium spurium (Galium spurium) | K: herbicidal effect on Lolium multiflorum Lam. (Lolium multiflorum Lam.) | also measured |
| --- | --- | --- | --- | --- | --- | --- | --- | --- | --- | --- | --- | --- | --- | --- | --- | --- | --- | --- | --- | --- | --- |
| Cc1nnc(NC(=O)c2ccc(C(F)(F)F)n3c(N(C)CCC#N)nnc23)o1 [1-153] | 3 (Herbicidal ratio of 40% or more and less than 70%) | 3 (Herbicidal ratio of 40% or more and less than 70%) | 4 (Herbicidal ratio of 70% or more and less than 90%) | 2 (Herbicidal ratio of 20% or more and less than 40%) |  |  |  |  |  |  |  |  |  |  |  |  |  |  |  |  | e (Triticum aestivum) effect on crop grade (Triticum aestivum; [6]): 2 (Herbicidal ratio of 20% or more and less than 40%); f (Beta vulgaris ssp. vulgaris) effect on crop grade [1, 6]: 5 (Herbicidal ratio of 90% or more (almost completely withered)); c (Zea mays) effect on crop grade (Zea mays; [6]): 0 (Herbicidal ratio of 5% or less (almost no effect)); g (Brassica campestris L.) effect on crop grade (Brassica campestris L.; [6]): 3 (Herbicidal ratio of 40% or more and less than 70%); d (Glycine max) effect on crop grade (Glycine max; [6]): 5 (Herbicidal ratio of 90% or more (almost completely withered)); b (directly sowed Oryza sativa) effect on crop grade [2, 6]: 3 (Herbicidal ratio of 40% or more and less than 70%); N (Amaranthus retroflexus) herbicidal effect grade (Amaranthus retroflexus; [6]): 4 (Herbicidal ratio of 70% or more and less than 90%); J (Alopecurus myosuroides) herbicidal effect grade (Alopecurus myosuroides; [6]): 1 (Herbicidal ratio of 5% or more and less than 20%); F (Digitaria ciliaris) herbicidal effect grade (Digitaria ciliaris; [6]): 4 (Herbicidal ratio of 70% or more and less than 90%); H (Echinochloa crus-galli var. crus-galli) herbicidal effect grade [3, 6]: 5 (Herbicidal ratio of 90% or more (almost completely withered)); I (Avena fatua) herbicidal effect grade (Avena fatua; [6]): 3 (Herbicidal ratio of 40% or more and less than 70%); P (Stellaria media) herbicidal effect grade (Stellaria media; [6]): 5 (Herbicidal ratio of 90% or more (almost completely withered)); R (Veronica persica) herbicidal effect grade (Veronica persica; [6]): 4 (Herbicidal ratio of 70% or more and less than 90%); O (Chenopodium album) herbicidal effect grade (Chenopodium album; [6]): 5 (Herbicidal ratio of 90% or more (almost completely withered)); Q (Galium spurium) herbicidal effect grade (Galium spurium; [6]): 4 (Herbicidal ratio of 70% or more and less than 90%); K (Lolium multiflorum Lam.) herbicidal effect grade (Lolium multiflorum Lam.; [6]): 1 (Herbicidal ratio of 5% or more and less than 20%); L (Apera spica-venti.) herbicidal effect grade (Apera spica-venti.; [6]): 2 (Herbicidal ratio of 20% or more and less than 40%); M (Abutilon theophrasti) herbicidal effect grade (Abutilon theophrasti; [6]): 3 (Herbicidal ratio of 40% or more and less than 70%); G (Setaria viridis) herbicidal effect grade (Setaria viridis; [6]): 4 (Herbicidal ratio of 70% or more and less than 90%) |
| COc1ccc(N(C)c2nnc3c(C(=O)Nc4nnc(C)o4)ccc(C(F)(F)F)n23)cc1 [1-165] | 4 (Herbicidal ratio of 70% or more and less than 90%) | 3 (Herbicidal ratio of 40% or more and less than 70%) | 4 (Herbicidal ratio of 70% or more and less than 90%) | 0 (Herbicidal ratio of 5% or less (almost no effect)) | 0 (Herbicidal ratio of 5% or less (almost no effect)) | 5 (Herbicidal ratio of 90% or more (almost completely withered)) | 0 (Herbicidal ratio of 5% or less (almost no effect)) | 4 (Herbicidal ratio of 70% or more and less than 90%) | 1 (Herbicidal ratio of 5% or more and less than 20%) | 0 (Herbicidal ratio of 5% or less (almost no effect)) | 4 (Herbicidal ratio of 70% or more and less than 90%) | 0 (Herbicidal ratio of 5% or less (almost no effect)) | 3 (Herbicidal ratio of 40% or more and less than 70%) | 4 (Herbicidal ratio of 70% or more and less than 90%) | 0 (Herbicidal ratio of 5% or less (almost no effect)) | 4 (Herbicidal ratio of 70% or more and less than 90%) | 4 (Herbicidal ratio of 70% or more and less than 90%) | 5 (Herbicidal ratio of 90% or more (almost completely withered)) | 2 (Herbicidal ratio of 20% or more and less than 40%) | 0 (Herbicidal ratio of 5% or less (almost no effect)) | L: herbicidal effect on Apera spica-venti. (Apera spica-venti.): 2 (Herbicidal ratio of 20% or more and less than 40%); M: herbicidal effect on Abutilon theophrasti (Abutilon theophrasti): 3 (Herbicidal ratio of 40% or more and less than 70%); G: herbicidal effect on Setaria viridis (Setaria viridis): 1 (Herbicidal ratio of 5% or more and less than 20%) |
| COc1ccc(CN(C)c2nnc3c(C(=O)Nc4nnc(C)o4)ccc(C(F)(F)F)n23)cc1 [1-167] | 4 (Herbicidal ratio of 70% or more and less than 90%) | 2 (Herbicidal ratio of 20% or more and less than 40%) | 0 (Herbicidal ratio of 5% or less (almost no effect)) | 0 (Herbicidal ratio of 5% or less (almost no effect)) | 0 (Herbicidal ratio of 5% or less (almost no effect)) | 5 (Herbicidal ratio of 90% or more (almost completely withered)) | 0 (Herbicidal ratio of 5% or less (almost no effect)) | 0 (Herbicidal ratio of 5% or less (almost no effect)) | 1 (Herbicidal ratio of 5% or more and less than 20%) | 0 (Herbicidal ratio of 5% or less (almost no effect)) | 2 (Herbicidal ratio of 20% or more and less than 40%) | 0 (Herbicidal ratio of 5% or less (almost no effect)) | 0 (Herbicidal ratio of 5% or less (almost no effect)) | 2 (Herbicidal ratio of 20% or more and less than 40%) | 1 (Herbicidal ratio of 5% or more and less than 20%) | 5 (Herbicidal ratio of 90% or more (almost completely withered)) | 4 (Herbicidal ratio of 70% or more and less than 90%) | 5 (Herbicidal ratio of 90% or more (almost completely withered)) | 2 (Herbicidal ratio of 20% or more and less than 40%) | 1 (Herbicidal ratio of 5% or more and less than 20%) | L: herbicidal effect on Apera spica-venti. (Apera spica-venti.): 1 (Herbicidal ratio of 5% or more and less than 20%); M: herbicidal effect on Abutilon theophrasti (Abutilon theophrasti): 2 (Herbicidal ratio of 20% or more and less than 40%); G: herbicidal effect on Setaria viridis (Setaria viridis): 0 (Herbicidal ratio of 5% or less (almost no effect)) |
| Cn1nnnc1NC(=O)c1ccc(C(F)(F)F)n2c(C3CC3)nnc12 [2-005] | 5 (Herbicidal ratio of 90% or more (almost completely withered)) | 5 (Herbicidal ratio of 90% or more (almost completely withered)) | 5 (Herbicidal ratio of 90% or more (almost completely withered)) | 0 (Herbicidal ratio of 5% or less (almost no effect)) | 3 (Herbicidal ratio of 40% or more and less than 70%) | 5 (Herbicidal ratio of 90% or more (almost completely withered)) | 1 (Herbicidal ratio of 5% or more and less than 20%) | 4 (Herbicidal ratio of 70% or more and less than 90%) | 3 (Herbicidal ratio of 40% or more and less than 70%) | 0 (Herbicidal ratio of 5% or less (almost no effect)) | 5 (Herbicidal ratio of 90% or more (almost completely withered)) | 3 (Herbicidal ratio of 40% or more and less than 70%) | 5 (Herbicidal ratio of 90% or more (almost completely withered)) | 5 (Herbicidal ratio of 90% or more (almost completely withered)) | 3 (Herbicidal ratio of 40% or more and less than 70%) | 5 (Herbicidal ratio of 90% or more (almost completely withered)) | 5 (Herbicidal ratio of 90% or more (almost completely withered)) | 5 (Herbicidal ratio of 90% or more (almost completely withered)) | 4 (Herbicidal ratio of 70% or more and less than 90%) | 2 (Herbicidal ratio of 20% or more and less than 40%) | L: herbicidal effect on Apera spica-venti. (Apera spica-venti.): 4 (Herbicidal ratio of 70% or more and less than 90%); M: herbicidal effect on Abutilon theophrasti (Abutilon theophrasti): 5 (Herbicidal ratio of 90% or more (almost completely withered)); G: herbicidal effect on Setaria viridis (Setaria viridis): 4 (Herbicidal ratio of 70% or more and less than 90%) |
